ChEMBL document CHEMBL5126609, “Design, Synthesis, and Pharmacological Evaluation of Benzimidazolo-thiazoles as Potent CXCR3 Antagonists with Therapeutic Potential in Autoimmune Diseases: Discovery of ACT-672125” (J Med Chem, 2022)
pIC50: −log10 of the molar value. Converted amounts (≈) assume the structure as drawn.

Experiments:
[1] = molecular target: T1, C-X-C chemokine receptor type 3 (Homo sapiens, UniProt P49682); assay: Antagonist activity at human recombinant CXCR3 expressed in CHO-K1 cells measured after 10 mins in presence of CXCL10 by FLIPR analysis
T1 sequence (P49682 whole entry): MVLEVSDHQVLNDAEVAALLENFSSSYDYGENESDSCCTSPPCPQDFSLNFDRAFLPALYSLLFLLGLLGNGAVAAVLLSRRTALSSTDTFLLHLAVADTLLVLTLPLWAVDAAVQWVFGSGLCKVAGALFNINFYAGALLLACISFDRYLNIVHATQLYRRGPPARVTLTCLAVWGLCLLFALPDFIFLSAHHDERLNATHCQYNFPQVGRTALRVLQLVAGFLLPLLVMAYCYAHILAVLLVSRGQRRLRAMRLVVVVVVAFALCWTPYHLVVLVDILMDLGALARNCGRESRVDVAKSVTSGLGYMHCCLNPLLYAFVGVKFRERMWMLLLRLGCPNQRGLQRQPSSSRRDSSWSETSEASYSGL

[2] = molecular target: T1, C-X-C chemokine receptor type 3; assay: Antagonist activity at human recombinant CXCR3 in human venous blood assessed as receptor internalization measured for 30 mins in presence of CXCL10 by flow cytometric analysis
[3] = molecular target: hERG (KCNH2) (Homo sapiens, UniProt Q12809); assay: Inhibition of hERG expressed in CHO cells at 3 uM at -80 mV holding potential assessed as current block incubated for 3 mins by Qpatch clamp method relative to control
[4] = Lipophilicity, log D of the compound at pH 7.4; settings: buffer
[5] = Solubility of the compound in FeSSIF; settings: simulated gi fluid
[6] = in vivo; settings: Balb/c, mouse, po, 10 mg/kg
[7] = in vivo; settings: Balb/c, mouse, po, 10 mg/kg; remark: listed apart in the source
[8] = in vivo; settings: Balb/c, mouse, po, 10 mg/kg; remark: listed apart in the source
[9] = in vitro; settings: human, microsomes
[10] = in vitro; settings: mouse, microsomes
[11] = Solubility of the compound in FaSSIF; settings: simulated gi fluid
[12] = Unbound fraction in human plasma by equilibrium based LC-MS/MS analysis
[13] = Unbound fraction in mouse plasma by equilibrium based LC-MS/MS analysis
[14] = Unbound fraction in rat plasma by equilibrium based LC-MS/MS analysis
[15] = Clearance in Wistar rat at 2 mg/kg, po; settings: in vivo
[16] = Half life in Wistar rat at 0.5 mg/kg, iv; settings: in vivo
[17] = Apparent permeability across apical to basolateral side in MDCK1 cells by LC-MS/MS analysis; settings: dog, MDCK
[18] = in vivo; settings: Wistar, rat, po, 2 mg/kg
[19] = in vivo; settings: Wistar, rat, po, 2 mg/kg; remark: listed apart in the source
[20] = in vivo; settings: Wistar, rat, po, 2 mg/kg; remark: listed apart in the source
[21] = in vitro; settings: rat, microsomes

Sequence of hERG (KCNH2) (Q12809 whole entry): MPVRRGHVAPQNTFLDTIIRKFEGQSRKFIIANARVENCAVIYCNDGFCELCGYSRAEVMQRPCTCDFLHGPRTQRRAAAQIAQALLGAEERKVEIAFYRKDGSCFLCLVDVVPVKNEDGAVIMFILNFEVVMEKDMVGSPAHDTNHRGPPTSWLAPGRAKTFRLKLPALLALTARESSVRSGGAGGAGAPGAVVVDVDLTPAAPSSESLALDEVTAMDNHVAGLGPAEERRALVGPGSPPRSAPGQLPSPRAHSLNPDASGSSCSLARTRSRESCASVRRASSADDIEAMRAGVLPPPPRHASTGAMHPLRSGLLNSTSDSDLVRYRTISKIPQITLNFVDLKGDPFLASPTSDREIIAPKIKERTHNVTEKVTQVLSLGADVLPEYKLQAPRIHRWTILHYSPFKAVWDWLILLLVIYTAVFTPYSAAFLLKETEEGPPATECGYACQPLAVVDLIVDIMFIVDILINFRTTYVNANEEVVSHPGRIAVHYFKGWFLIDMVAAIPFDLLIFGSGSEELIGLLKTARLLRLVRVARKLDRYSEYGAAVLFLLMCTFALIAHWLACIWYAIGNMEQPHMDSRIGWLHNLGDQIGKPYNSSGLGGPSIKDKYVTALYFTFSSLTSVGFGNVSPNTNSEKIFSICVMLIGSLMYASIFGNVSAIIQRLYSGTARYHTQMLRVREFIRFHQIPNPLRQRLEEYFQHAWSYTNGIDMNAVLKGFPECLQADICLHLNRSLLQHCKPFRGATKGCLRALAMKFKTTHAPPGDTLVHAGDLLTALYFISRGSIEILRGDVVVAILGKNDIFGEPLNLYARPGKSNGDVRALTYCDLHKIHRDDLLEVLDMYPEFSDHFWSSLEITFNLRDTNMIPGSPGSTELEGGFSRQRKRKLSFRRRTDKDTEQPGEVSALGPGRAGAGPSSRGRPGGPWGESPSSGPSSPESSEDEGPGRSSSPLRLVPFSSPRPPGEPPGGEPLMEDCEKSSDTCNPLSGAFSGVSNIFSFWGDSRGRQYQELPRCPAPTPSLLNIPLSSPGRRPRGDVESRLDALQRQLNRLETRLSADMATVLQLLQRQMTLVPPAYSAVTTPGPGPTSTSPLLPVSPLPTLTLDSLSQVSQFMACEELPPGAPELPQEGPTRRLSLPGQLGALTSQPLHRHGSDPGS

pIC50 [1] | pIC50 [2] | SMILES | inhibition at 0.05 h, 3 µM [3] [%] | further results
7.51 | 5.61 | Cc1nnc(CC(=O)N2CCN(c3sc(C(F)(F)F)nc3-c3nc4ccccc4[nH]3)C[C@H]2C)o1 | 36 | 
 |  | Cc1nc(C)n(CC(=O)N2CCN(c3sc(C(F)(F)F)nc3-c3nc4cc(N5CCOCC5)cc(F)c4[nH]3)C[C@H]2C)n1 | 6 | 
6.96 | 5.45 | C[C@@H]1CN(c2sc(C(F)(F)F)nc2-c2nc3ccccc3n2C)CCN1C(=O)Cn1cccn1 | 46 | 
6.82 | 5.16 | COCCn1c(-c2nc(C(F)(F)F)sc2N2CCN(C(=O)Cn3cccn3)[C@H](C)C2)nc2ccccc21 | 2 | 
8.66 | 6.51 | Cc1nc(C)n(CC(=O)N2CCN(c3sc(C(F)(F)F)nc3-c3nc4ccc(C5CCNCC5)cc4[nH]3)C[C@H]2C)n1 | 5 | 
8.24 | 6.43 | Cc1nc(C)n(CC(=O)N2CCN(c3sc(C(F)(F)F)nc3-c3nc4ccc(N5CCOCC5)cc4[nH]3)C[C@H]2C)n1 | 4 | logD [4]: 2; solubility [5]: 963 µg/mL (≈ 1630 µM); Cmax [6]: 4320 ng/mL; Tmax [7]: 15 min; AUC [8]: 4110 ng·h/mL; microsomal CLint at 0.25 h, 1 µM [9]: 19 µL/min/mg; microsomal CLint at 0.25 h, 1 µM [10]: 18 µL/min/mg
8.49 | 6.63 | Cc1nc(C)n(CC(=O)N2CCN(c3sc(C(F)(F)F)nc3-c3nc4ccccc4[nH]3)C[C@H]2C)n1 | 45 | logD [4]: 3.3; solubility [11]: 440 µg/mL (≈ 872 µM); solubility [5]: > 850 µg/mL; fraction unbound [12]: 0.113; fraction unbound [13]: 0.041; fraction unbound [14]: 0.074; CL/F [15]: 6 mL/min/kg; half-life [16]: 180 min; Papp A→B [17]: 12 ×10⁻⁶ cm/s; Cmax [6]: 5090 ng/mL; Tmax [7]: 30 min; Tmax [18]: 30 min; AUC [8]: 10800 ng·h/mL; AUC [19]: 2970 ng·h/mL; bioavailability [20]: 0.5%; microsomal CLint at 0.25 h, 1 µM [9]: 30 µL/min/mg; microsomal CLint at 0.25 h, 1 µM [10]: 21 µL/min/mg; microsomal CLint at 0.25 h, 1 µM [21]: 39 µL/min/mg
8.22 | 6.13 | Cc1nc(C)n(CC(=O)N2CCN(c3sc(C(F)(F)F)nc3-c3nc4c(C(F)(F)F)cccc4[nH]3)C[C@H]2C)n1 | 52 | 
 |  | Cc1nc(C)n(CC(=O)N2CCN(c3sc(C(F)(F)F)nc3-c3nc4ccc(OC5COC5)cc4[nH]3)C[C@H]2C)n1 | 0 | 
 |  | C[C@@H]1CN(c2sc(C(F)(F)F)nc2-c2nc3ccccc3[nH]2)CCN1C(=O)CN1CCC(F)(F)CC1 | 84 | 
 |  | C[C@@H]1CN(c2sc(C(F)(F)F)nc2-c2nc3ccccc3[nH]2)CCN1C(=O)Cn1ccc(C(=O)O)n1 | -2 | 
8.77 | 6.60 | C[C@@H]1CN(c2sc(C(F)(F)F)nc2-c2nc3ccccc3[nH]2)CCN1C(=O)Cn1cc(Cl)cn1 | 70 | 
8.21 | 6.09 | Cc1ccc(CC(=O)N2CCN(c3sc(C(F)(F)F)nc3-c3nc4ccccc4[nH]3)C[C@H]2C)cn1 | 73 | 
8.80 | 6.91 | C[C@@H]1CN(c2sc(C(F)(F)F)nc2-c2nc3ccc(N4CCN(C)CC4)cc3[nH]2)CCN1C(=O)Cn1cccn1 | 0 | 
7.82 | 5.77 | C[C@@H]1CN(c2sc(C(F)(F)F)nc2-c2nc3ccccc3[nH]2)CCN1C(=O)Cn1cc(C2CCN(C)CC2)cn1 | 74 | 
8.51 | 6.49 | Cc1nc(C)n(CC(=O)N2CCN(c3sc(C(F)(F)F)nc3-c3nc4c(F)cccc4[nH]3)C[C@H]2C)n1 | 45 | logD [4]: 3.6; solubility [5]: 750 µg/mL (≈ 1440 µM); fraction unbound [13]: 0.014; Papp A→B [17]: 8.5 ×10⁻⁶ cm/s; Cmax [6]: 7010 ng/mL; Tmax [7]: 15 min; AUC [8]: 41500 ng·h/mL; microsomal CLint at 0.25 h, 1 µM [9]: 24 µL/min/mg; microsomal CLint at 0.25 h, 1 µM [10]: 25 µL/min/mg
 |  | Cc1nc(C)n(CC(=O)N2CCN(c3sc(C(F)(F)F)nc3-c3nc4cccc(C)c4[nH]3)C[C@H]2C)n1 | 52 | 

SMILES | pIC50 [1] | pIC50 [2] | inhibition at 0.05 h, 3 µM [3] [%] | further results
C[C@@H]1CN(c2sc(C(F)(F)F)nc2-c2nc3cc(Cl)ccc3[nH]2)CCN1C(=O)Cn1cnc2cccnc21 | 8.55 | 7.41 | 83 | 
